This note sets out measurements from patent publication US11136313B2, “Compounds, compositions, and methods for modulating CFTR” (Proteostasis Therapeutics, Inc., priority 2015, dated 2021).

Molecules are shown by their SMILES.

The test has as its target T1, ΔF508-CFTR (Homo sapiens, UniProt P13569, DEL508-508).
T1 construct: Primary lung epithelial cells homozygous for the Cystic Fibrosis-causing ΔF508 mutation were differentiated for a minimum of 4 weeks; endogenous in cells; host or cells: primary lung epithelial cells (hBE) homozygous for ΔF508, differentiated at an air-liquid interface
Put plainly: hBE equivalent current (Ieq) assay: AUC of equivalent chloride current after forskolin/VX-770 in primary lung epithelial cells homozygous for ΔF508. It is filed as cell-based. Conditions: relative to CFTR amplifier (Compound A)+VX-809 (3 uM), compound at 10 uM and Compound A at 3 uM, 24 h treatment. In outline:
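ΔF508/ΔF508 primary human bronchial epithelia, differentiated ≥4 weeks at air-liquid interface, treated basolaterally with compound for 24 h at 37 °C. Transepithelial voltage and conductance by 24-channel current clamp at 36 °C: benzamil, then forskolin plus VX-770 for 27 min, then bumetanide; AUC of equivalent chloride current over vehicle.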

T1 sequence (P13569 with tags, fused parts or gaps DEL508-508): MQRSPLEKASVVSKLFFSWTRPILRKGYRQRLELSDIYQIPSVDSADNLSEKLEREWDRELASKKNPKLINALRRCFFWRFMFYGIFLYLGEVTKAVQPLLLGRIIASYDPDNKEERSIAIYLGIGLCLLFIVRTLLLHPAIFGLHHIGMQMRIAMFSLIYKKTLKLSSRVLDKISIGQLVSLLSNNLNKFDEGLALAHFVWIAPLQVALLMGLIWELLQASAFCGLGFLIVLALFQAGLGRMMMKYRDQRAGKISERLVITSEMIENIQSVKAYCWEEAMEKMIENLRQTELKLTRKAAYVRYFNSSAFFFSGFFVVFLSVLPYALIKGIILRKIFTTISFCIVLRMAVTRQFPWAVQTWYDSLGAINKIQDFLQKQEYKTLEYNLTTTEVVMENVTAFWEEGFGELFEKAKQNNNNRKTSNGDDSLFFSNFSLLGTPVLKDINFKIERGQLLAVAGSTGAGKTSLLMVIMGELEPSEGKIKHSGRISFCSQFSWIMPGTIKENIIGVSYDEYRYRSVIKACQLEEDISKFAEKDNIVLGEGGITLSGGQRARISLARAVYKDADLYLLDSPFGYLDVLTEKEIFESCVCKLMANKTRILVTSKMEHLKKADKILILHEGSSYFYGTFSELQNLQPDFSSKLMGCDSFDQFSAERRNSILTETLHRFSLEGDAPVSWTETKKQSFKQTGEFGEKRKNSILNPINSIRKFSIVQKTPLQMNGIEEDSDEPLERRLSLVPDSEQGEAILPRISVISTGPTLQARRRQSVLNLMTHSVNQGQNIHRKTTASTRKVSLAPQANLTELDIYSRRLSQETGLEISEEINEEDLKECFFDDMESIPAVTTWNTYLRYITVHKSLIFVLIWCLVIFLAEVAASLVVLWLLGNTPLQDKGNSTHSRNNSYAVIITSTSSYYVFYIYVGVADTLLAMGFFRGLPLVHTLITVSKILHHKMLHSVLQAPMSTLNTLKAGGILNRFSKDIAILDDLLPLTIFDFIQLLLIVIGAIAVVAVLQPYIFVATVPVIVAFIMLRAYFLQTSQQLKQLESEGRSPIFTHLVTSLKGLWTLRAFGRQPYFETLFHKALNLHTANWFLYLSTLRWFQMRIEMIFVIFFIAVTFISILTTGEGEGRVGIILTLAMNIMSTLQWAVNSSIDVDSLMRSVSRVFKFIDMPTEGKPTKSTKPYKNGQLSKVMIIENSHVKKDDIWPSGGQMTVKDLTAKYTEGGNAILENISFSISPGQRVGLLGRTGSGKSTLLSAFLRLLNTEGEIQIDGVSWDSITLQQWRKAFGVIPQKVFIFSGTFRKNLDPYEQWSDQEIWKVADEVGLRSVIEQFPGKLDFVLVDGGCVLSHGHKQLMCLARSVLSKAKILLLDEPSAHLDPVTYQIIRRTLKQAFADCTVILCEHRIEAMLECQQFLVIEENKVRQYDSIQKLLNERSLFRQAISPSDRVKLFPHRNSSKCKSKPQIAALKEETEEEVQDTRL

Consider `Cc1c(-c2cc(C(=O)[O-])c3c(O[C@@H]4CCC[C@@H](c5ccccc5)C4)ccc(C)c3n2)oc2ccccc12.[Na+]` [Compound 301], for which the Activity result is “++ (activity>50% of CFTR amplifier+VX-809 (3 uM) with compound at 10 uM and Compound A at 3 uM)”.

`Cc1c(-c2cc(C(=O)[O-])c3c(O[C@H]4C[C@@H](c5ccccc5)C4)ccc(C)c3n2)oc2ccccc12.[Na+]` [Compound 282, Sodium 8-Methyl-2-(3-methyl-1-benzofuran-2-yl)-5-[(1s,3s)-3-phenylcyclobutoxy]quinoline-4-carboxylate]: the Activity result is “++ (activity>50% of CFTR amplifier+VX-809 (3 uM) with compound at 10 uM and Compound A at 3 uM)”.

Regarding `Cc1cc(C)c2nc(-c3cc4ccccc4o3)cc(C(=O)O)c2c1` [Compound 6, 2-(1-Benzofuran-2-yl)-6,8-dimethylquinoline-4-carboxylic acid], the Activity entry was “+ (activity<50% of an CFTR amplifier (Compound A)+VX-809 (3 uM) with compound at 10 uM and Compound A at 3 uM)”.

Take `Cc1c(-c2cc(-c3cc(O)[nH]n3)c3c(OC(C)c4ccccc4)ccc(C)c3n2)oc2ccccc12` (stereo not drawn) [Compound 362]: the Activity entry is “+ (activity<50% of an CFTR amplifier (Compound A)+VX-809 (3 uM) with compound at 10 uM and Compound A at 3 uM)”.

Take `Cc1ccc(OCc2ccccc2)c2c(C(=O)O)cc(-c3cc4ccccc4o3)nc12` [Compound 15, 2-(1-Benzofuran-2-yl)-5-(benzyloxy)-8-methylquinoline-4-carboxylic acid]: the Activity result is “++ (activity>50% of CFTR amplifier+VX-809 (3 uM) with compound at 10 uM and Compound A at 3 uM)”.

For the compound `Cc1ccc(C)c2c(C(=O)O)cc(-c3oc4ccccc4c3Cl)nc12` [Compound 38, 2-(3-Chloro-1-benzofuran-2-yl)-5,8-dimethylquinoline-4-carboxylic acid], the Activity entry is “+ (activity<50% of an CFTR amplifier (Compound A)+VX-809 (3 uM) with compound at 10 uM and Compound A at 3 uM)”.

For `Cc1c(-c2cc(C(=O)O)c3c(OCc4cccnc4)ccc(C)c3n2)oc2ccccc12` [Compound 114, 8-Methyl-2-(3-methyl-1-benzofuran-2-yl)-5-(pyridin-3-ylmethoxy)quinoline-4-carboxylic acid], the Activity entry is “+ (activity<50% of an CFTR amplifier (Compound A)+VX-809 (3 uM) with compound at 10 uM and Compound A at 3 uM)”.

Take `Cc1c(-c2cc(C(=O)[O-])c3c(O[C@@H](C)C4CCOCC4)ccc(C)c3n2)oc2ccccc12.[Na+]` [Compound 246, Sodium 5-((1S)-1-(tetrahydro-2H-pyran-4-yl)ethoxy)-8-methyl-2-(3-methyl-1-benzofuran-2-yl)quinoline-4-carboxylate]: the Activity result is “++ (activity>50% of CFTR amplifier+VX-809 (3 uM) with compound at 10 uM and Compound A at 3 uM)”.

For the compound `COC[C@@H](Oc1ccc(C)c2nc(-c3sc4ccccc4c3C)cc(C(=O)[O-])c12)c1ccccc1.[Na+]` [Compound 309], the Activity result was “++ (activity>50% of CFTR amplifier+VX-809 (3 uM) with compound at 10 uM and Compound A at 3 uM)”.

Regarding `Cc1c(-c2cc(C(=O)O)c3c(OCc4ccccc4)ccc(C4CC4)c3n2)oc2ccccc12` [Compound 107, 5-(Benzyloxy)-8-cyclopropyl-2-(3-methyl-1-benzofuran-2-yl)quinoline-4-carboxylic acid], the Activity entry is “++ (activity>50% of CFTR amplifier+VX-809 (3 uM) with compound at 10 uM and Compound A at 3 uM)”.

On to `Cc1c(-c2cc(C(=O)[O-])c3c(O[C@H](C)c4ccc(S(C)(=O)=O)cc4)ccc(C)c3n2)sc2ccccc12.[Na+]` [Compound 265], for which the Activity entry was “++ (activity>50% of CFTR amplifier+VX-809 (3 uM) with compound at 10 uM and Compound A at 3 uM)”.

`Cc1c(-c2cc(C(=O)[O-])c3c(O[C@H]4C[C@H](c5ccccc5)C4)ccc(C)c3n2)oc2ccccc12.[Na+]` [Compound 281, Sodium 8-Methyl-2-(3-methyl-1-benzofuran-2-yl)-5-[(1r,3r)-3-phenylcyclobutoxy]quinoline-4-carboxylate]: the Activity result is “++ (activity>50% of CFTR amplifier+VX-809 (3 uM) with compound at 10 uM and Compound A at 3 uM)”.

For `CCc1ccc(COc2ccccc2)c2c(C(=O)O)cc(-c3csc4ccccc34)nc12` [Compound 180], the Activity entry was “++ (activity>50% of CFTR amplifier+VX-809 (3 uM) with compound at 10 uM and Compound A at 3 uM)”.

Take `Cc1c(-c2cc(C(=O)[O-])c3c(O[C@H]4CCC[C@@H](C)C4)ccc(C)c3n2)sc2ccccc12.[Na+]` [Compound 219, Sodium 8-Methyl-2-(3-methyl-1-benzothiophen-2-yl)-5-[[(1S,3R)-3-methylcyclohexyl]oxy]quinoline-4-carboxylic acid]: the Activity entry was “++ (activity>50% of CFTR amplifier+VX-809 (3 uM) with compound at 10 uM and Compound A at 3 uM)”.

With `Cc1c(-c2cc(C(=O)[O-])c3c(O[C@H]4C[C@@H](c5ccccc5)C4)ccc(C)c3n2)sc2ccccc12.[Na+]` [Compound 284, Sodium 8-Methyl-2-(3-methyl-1-benzothiophen-2-yl)-5-[(1s,3s)-3-phenylcyclobutoxy]quinoline-4-carboxylate], the Activity result is “++ (activity>50% of CFTR amplifier+VX-809 (3 uM) with compound at 10 uM and Compound A at 3 uM)”.

As for `CCc1ccc(OCc2cccc(C)c2)c2c(C(=O)O)cc(-c3csc4ccccc34)nc12` [Compound 188], the Activity result is “++ (activity>50% of CFTR amplifier+VX-809 (3 uM) with compound at 10 uM and Compound A at 3 uM)”.

Consider `Cc1cccc(COc2ccc(C)c3nc(-c4sc5ccccc5c4C)cc(C(=O)[O-])c23)c1.[Na+]` [Compound 304], for which the Activity result is “++ (activity>50% of CFTR amplifier+VX-809 (3 uM) with compound at 10 uM and Compound A at 3 uM)”.

On to `CCc1ccc(OC2CCCCC2)c2c(C(=O)O)cc(-c3sc4ccccc4c3C)nc12` [Compound 135, 5-(Cyclohexyloxy)-8-ethyl-2-(3-methyl-1-benzothiophen-2-yl)quinoline-4-carboxylic acid], for which the Activity result was “++ (activity>50% of CFTR amplifier+VX-809 (3 uM) with compound at 10 uM and Compound A at 3 uM)”.

As for `COc1ccccc1COc1ccc(C)c2nc(-c3sc4ccccc4c3C)cc(C(=O)[O-])c12.[Na+]` [Compound 292, Sodium 5-[(2-Methoxyphenyl)methoxy]-8-methyl-2-(3-methyl-1-benzothiophen-2-yl)quinoline-4-carboxylate], the Activity result is “++ (activity>50% of CFTR amplifier+VX-809 (3 uM) with compound at 10 uM and Compound A at 3 uM)”.

For `Cc1c(-c2cc(C(=O)O)c3cc(F)cc(C)c3n2)oc2ccccc12` [Compound 20, 6-Fluoro-8-methyl-2-(3-methylbenzofuran-2-yl)quinoline-4-carboxylic acid], the Activity entry was “++ (activity>50% of CFTR amplifier+VX-809 (3 uM) with compound at 10 uM and Compound A at 3 uM)”.

In the case of `Cc1c(-c2cc(C(=O)[O-])c3c(OCc4cccc(C#N)c4)ccc(C)c3n2)sc2ccccc12.[Na+]` [Compound 298, Sodium 5-[(3-Cyanophenyl)methoxy]-8-methyl-2-(3-methyl-1-benzothiophen-2-yl)quinoline-4-carboxylate], the Activity entry was “++ (activity>50% of CFTR amplifier+VX-809 (3 uM) with compound at 10 uM and Compound A at 3 uM)”.

For `CO[C@]1(C)CC[C@@H](COc2ccc(C)c3nc(-c4sc5ccccc5c4C)cc(C(=O)[O-])c23)CC1.[Na+]` [Compound 327], the Activity entry was “++ (activity>50% of CFTR amplifier+VX-809 (3 uM) with compound at 10 uM and Compound A at 3 uM)”.

For `Cc1c(-c2cc(C(=O)[O-])c3c(OC[C@@H]4C[C@H]5CC[C@@H](C4)O5)ccc(C)c3n2)sc2ccccc12.[Na+]` [Compound 358], the Activity result is “++ (activity>50% of CFTR amplifier+VX-809 (3 uM) with compound at 10 uM and Compound A at 3 uM)”.

For the compound `CO[C@]1(C)C[C@@H](COc2ccc(C)c3nc(-c4sc5ccccc5c4C)cc(C(=O)[O-])c23)C1.[Na+]` [Compound 325], the Activity result is “++ (activity>50% of CFTR amplifier+VX-809 (3 uM) with compound at 10 uM and Compound A at 3 uM)”.

In the case of `CCc1ccc(OC2CCCCC2)c2c(C(=O)O)cc(-c3coc4ccccc34)nc12` [Compound 170, 2-(1-Benzofuran-3-yl)-5-(cyclohexyloxy)-8-ethylquinoline-4-carboxylic acid], the Activity result was “++ (activity>50% of CFTR amplifier+VX-809 (3 uM) with compound at 10 uM and Compound A at 3 uM)”.

Consider `Cc1c(-c2cc(C(=O)O)c3c(C)ccc(C)c3n2)oc2c(C)cccc12` [Compound 125, 2-(3,7-Dimethyl-1-benzofuran-2-yl)-5,8-dimethylquinoline-4-carboxylic acid], for which the Activity result is “++ (activity>50% of CFTR amplifier+VX-809 (3 uM) with compound at 10 uM and Compound A at 3 uM)”.

For `Cc1c(-c2cc(C(=O)O)c3c(OC4CCc5ccccc54)ccc(C)c3n2)oc2ccccc12` (stereo not drawn) [Compound 336], the Activity entry was “++ (activity>50% of CFTR amplifier+VX-809 (3 uM) with compound at 10 uM and Compound A at 3 uM)”.

With `Cc1c(-c2cc(C(=O)[O-])c3c(OCc4ccc(S(C)(=O)=O)cc4)ccc(C)c3n2)sc2ccccc12.[Na+]` [Compound 264], the Activity entry was “++ (activity>50% of CFTR amplifier+VX-809 (3 uM) with compound at 10 uM and Compound A at 3 uM)”.

`Cc1c(-c2cc(C(=O)O)c3cc(OCc4ccccc4)cc(C)c3n2)oc2ccccc12` [Compound 24, 6-(Benzyloxy)-8-methyl-2-(3-methyl-1-benzofuran-2-yl)quinoline-4-carboxylic acid]: the Activity entry was “++ (activity>50% of CFTR amplifier+VX-809 (3 uM) with compound at 10 uM and Compound A at 3 uM)”.

Regarding `Cc1ccc(OCc2ccccc2)c2c(C(=O)O)cc(-c3csc4ccccc34)nc12` [Compound 95, 2-(1-Benzothiophen-3-yl)-5-(benzyloxy)-8-methylquinoline-4-carboxylic acid], the Activity result was “++ (activity>50% of CFTR amplifier+VX-809 (3 uM) with compound at 10 uM and Compound A at 3 uM)”.
